Results published in PubChem BioAssay AID1963825 (Molecular Pharmacology Branch, DTP, NCI, 2024).

Test: Anticancer human tumor 997537-175-T-J1-PDC patient-derived colon adenocarcinoma cell line growth inhibition [POLQ]
Conditions: 997537-175-T-J1-PDC complex spheroid viability, combination with POLQ inhibitors; for IC50: curve of first compound; for viability, T/C: stronger effect = lower value
Procedure, shortened: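 PDC + HUVEC + MSC complex spheroids; POLQ inhibitors ± partner drugs; top conc. at/near clinical Cmax, else 10 microM (SN-38 1 microM), half-log dilutions; 37 degrees C, 5% CO2.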

[1] = second compound 0.0316 µM, first compound 0.0316 µM
[2] = second compound 0.0316 µM, first compound 0.1 µM
[3] = second compound 0.0316 µM, first compound 0.316 µM
[4] = second compound 0.0316 µM, first compound 1 µM
[5] = second compound 0.0316 µM, first compound 3.16 µM
[6] = second compound 0.0316 µM, first compound 10 µM
[7] = second compound 0.1 µM, first compound 0.0316 µM
[8] = second compound 0.1 µM, first compound 0.1 µM
[9] = second compound 0.1 µM, first compound 0.316 µM
[10] = second compound 0.1 µM, first compound 1 µM
[11] = second compound 0.1 µM, first compound 3.16 µM
[12] = second compound 0.1 µM, first compound 10 µM
[13] = second compound 0.316 µM, first compound 0.0316 µM
[14] = second compound 0.316 µM, first compound 0.1 µM
[15] = second compound 0.316 µM, first compound 0.316 µM
[16] = second compound 0.316 µM, first compound 1 µM
[17] = second compound 0.316 µM, first compound 3.16 µM
[18] = second compound 0.316 µM, first compound 10 µM
[19] = second compound 1 µM, first compound 0.0316 µM
[20] = second compound 1 µM, first compound 0.1 µM
[21] = second compound 1 µM, first compound 0.316 µM
[22] = second compound 1 µM, first compound 1 µM
[23] = second compound 1 µM, first compound 3.16 µM
[24] = second compound 1 µM, first compound 10 µM
[25] = second compound 3.16 µM, first compound 0.0316 µM
[26] = second compound 3.16 µM, first compound 0.1 µM
[27] = second compound 3.16 µM, first compound 0.316 µM
[28] = second compound 3.16 µM, first compound 1 µM
[29] = second compound 3.16 µM, first compound 3.16 µM
[30] = second compound 3.16 µM, first compound 10 µM
[31] = second compound 10 µM, first compound 0.0316 µM
[32] = second compound 10 µM, first compound 0.1 µM
[33] = second compound 10 µM, first compound 0.316 µM
[34] = second compound 10 µM, first compound 1 µM
[35] = second compound 10 µM, first compound 3.16 µM
[36] = second compound 10 µM, first compound 10 µM
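Further: luminescence signal used as a surrogate for viable cells; spheroids exposed to drugs for seven days before readout.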

Structure (SMILES): O=C(c1cc(Cc2n[nH]c(=O)c3ccccc23)ccc1F)N1CCN(C(=O)C2CC2)CC1 + COC1C(OC(N)=O)C(O)C(Oc2ccc3c(O)c(NC(=O)c4ccc(O)c(CC=C(C)C)c4)c(=O)oc3c2C)OC1(C)C
- IC50 (second compound 0.0316 µM): > 10 µM
- IC50 (second compound 0.1 µM): > 10 µM
- IC50 (second compound 0.316 µM): > 10 µM
- IC50 (second compound 1 µM): > 10 µM
- IC50 (second compound 3.16 µM): > 10 µM
- IC50 (second compound 10 µM): > 10 µM
- viability, T/C [1]: 98.2%
- viability, T/C [2]: 99.8%
- viability, T/C [3]: 99.1%
- viability, T/C [4]: 88.3%
- viability, T/C [5]: 93%
- viability, T/C [6]: 101%
- viability, T/C [7]: 73.7%
- viability, T/C [8]: 91.7%
- viability, T/C [9]: 101%
- viability, T/C [10]: 106%
- viability, T/C [11]: 99%
- viability, T/C [12]: 101%
- viability, T/C [13]: 105%
- viability, T/C [14]: 112%
- viability, T/C [15]: 98.9%
- viability, T/C [16]: 96.8%
- viability, T/C [17]: 100%
- viability, T/C [18]: 107%
- viability, T/C [19]: 100%
- viability, T/C [20]: 98%
- viability, T/C [21]: 110%
- viability, T/C [22]: 92.7%
- viability, T/C [23]: 77.1%
- viability, T/C [24]: 96.3%
- viability, T/C [25]: 101%
- viability, T/C [26]: 95.1%
- viability, T/C [27]: 94.7%
- viability, T/C [28]: 86%
- viability, T/C [29]: 95.8%
- viability, T/C [30]: 96.9%
- viability, T/C [31]: 102%
- viability, T/C [32]: 78%
- viability, T/C [33]: 104%
- viability, T/C [34]: 98.5%
- viability, T/C [35]: 91.7%
- viability, T/C [36]: 107%

Structure (SMILES): CCc1cc2c(N3CCc4c(cc(Cn5ccnc5)cc4-c4cn(C)nc4C(F)(F)F)C3=O)cc(C)nc2c(OC)n1 + Cc1cccc(N(C)C(=O)C2C(O)CCN2c2nc(C)cc(C(F)(F)F)c2C#N)c1
- IC50 (second compound 0.0316 µM): > 10 µM
- IC50 (second compound 0.1 µM): > 10 µM
- IC50 (second compound 0.316 µM): > 10 µM
- IC50 (second compound 1 µM): > 10 µM
- IC50 (second compound 3.16 µM): > 10 µM
- IC50 (second compound 10 µM): > 10 µM
- viability, T/C [1]: 109%
- viability, T/C [2]: 113%
- viability, T/C [3]: 97%
- viability, T/C [4]: 82.8%
- viability, T/C [5]: 87.1%
- viability, T/C [6]: 52.4%
- viability, T/C [7]: 108%
- viability, T/C [8]: 105%
- viability, T/C [9]: 84.1%
- viability, T/C [10]: 90.6%
- viability, T/C [11]: 75.2%
- viability, T/C [12]: 74.6%
- viability, T/C [13]: 83.5%
- viability, T/C [14]: 103%
- viability, T/C [15]: 82.6%
- viability, T/C [16]: 84.1%
- viability, T/C [17]: 82.9%
- viability, T/C [18]: 60.9%
- viability, T/C [19]: 91.2%
- viability, T/C [20]: 91.7%
- viability, T/C [21]: 85.9%
- viability, T/C [22]: 86.9%
- viability, T/C [23]: 111%
- viability, T/C [24]: 63.3%
- viability, T/C [25]: 97.1%
- viability, T/C [26]: 115%
- viability, T/C [27]: 92.2%
- viability, T/C [28]: 82.7%
- viability, T/C [29]: 61.6%
- viability, T/C [30]: 59.5%
- viability, T/C [31]: 102%
- viability, T/C [32]: 91.8%
- viability, T/C [33]: 105%
- viability, T/C [34]: 77.2%
- viability, T/C [35]: 74%
- viability, T/C [36]: 53.6%

Structure (SMILES): CC(C)n1c(=O)n(C)c2cnc3cc(F)c(-c4ccc(OCCCN5CCCCC5)nc4)cc3c21 + Nc1ccc(C#CCN(C(=O)Cc2ncc(C(F)(F)F)cc2C(F)(F)F)c2ccc(F)cc2)nn1
- IC50 (second compound 0.0316 µM): > 10 µM
- IC50 (second compound 0.1 µM): > 10 µM
- IC50 (second compound 0.316 µM): > 10 µM
- IC50 (second compound 1 µM): > 10 µM
- IC50 (second compound 3.16 µM): > 10 µM
- IC50 (second compound 10 µM): > 10 µM
- viability, T/C [1]: 96%
- viability, T/C [2]: 107%
- viability, T/C [3]: 92.5%
- viability, T/C [4]: 98%
- viability, T/C [5]: 85.5%
- viability, T/C [6]: 91.3%
- viability, T/C [7]: 98.2%
- viability, T/C [8]: 111%
- viability, T/C [9]: 113%
- viability, T/C [10]: 105%
- viability, T/C [11]: 97.2%
- viability, T/C [12]: 77.4%
- viability, T/C [13]: 97%
- viability, T/C [14]: 91.1%
- viability, T/C [15]: 107%
- viability, T/C [16]: 89.9%
- viability, T/C [17]: 107%
- viability, T/C [18]: 90.2%
- viability, T/C [19]: 105%
- viability, T/C [20]: 107%
- viability, T/C [21]: 92.6%
- viability, T/C [22]: 89.4%
- viability, T/C [23]: 105%
- viability, T/C [24]: 107%
- viability, T/C [25]: 97.3%
- viability, T/C [26]: 104%
- viability, T/C [27]: 104%
- viability, T/C [28]: 83.3%
- viability, T/C [29]: 97.8%
- viability, T/C [30]: 98.7%
- viability, T/C [31]: 102%
- viability, T/C [32]: 103%
- viability, T/C [33]: 97.8%
- viability, T/C [34]: 101%
- viability, T/C [35]: 96.2%
- viability, T/C [36]: 81.5%
